Source: BindingDB's records for patent WO2022098806 (MERCK SHARP & DOHME LLC, 2022)
“And” between values parts separate entries of the source, which are not always exact repeats. Equal entries are not always repeated.

target: Mitogen-activated protein kinase kinase kinase kinase 1 (Homo sapiens, UniProt Q92918); experiment: HPK1-SLP76 TR-FRET ASSAY
Sequence (Q92918 whole entry): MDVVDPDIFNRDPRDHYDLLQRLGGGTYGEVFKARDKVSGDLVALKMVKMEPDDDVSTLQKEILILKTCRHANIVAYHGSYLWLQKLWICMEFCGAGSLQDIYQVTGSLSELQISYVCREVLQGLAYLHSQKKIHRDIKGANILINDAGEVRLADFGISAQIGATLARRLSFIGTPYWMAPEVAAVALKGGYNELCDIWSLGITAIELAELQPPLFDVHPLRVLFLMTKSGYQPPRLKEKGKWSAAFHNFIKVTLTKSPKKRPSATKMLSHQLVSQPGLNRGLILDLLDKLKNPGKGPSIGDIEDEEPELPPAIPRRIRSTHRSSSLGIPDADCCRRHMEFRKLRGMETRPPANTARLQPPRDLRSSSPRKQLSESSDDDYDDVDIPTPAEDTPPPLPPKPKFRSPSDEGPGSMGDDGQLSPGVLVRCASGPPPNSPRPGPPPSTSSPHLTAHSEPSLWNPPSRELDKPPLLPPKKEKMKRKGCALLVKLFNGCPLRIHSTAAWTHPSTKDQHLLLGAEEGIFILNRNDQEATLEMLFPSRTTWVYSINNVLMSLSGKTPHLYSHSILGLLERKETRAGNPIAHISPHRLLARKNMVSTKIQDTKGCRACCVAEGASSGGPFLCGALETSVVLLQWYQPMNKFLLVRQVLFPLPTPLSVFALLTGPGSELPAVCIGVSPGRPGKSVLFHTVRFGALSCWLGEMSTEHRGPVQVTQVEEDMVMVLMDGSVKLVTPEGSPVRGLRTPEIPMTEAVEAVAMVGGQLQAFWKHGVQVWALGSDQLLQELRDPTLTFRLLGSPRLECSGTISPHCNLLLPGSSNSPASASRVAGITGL

Structure (SMILES) | IC50
Cc1c(-c2cc3nc(Nc4ccc([C@H](C)S(C)(=O)=O)cc4)ncc3c(N)c2F)cnc2c1NCCO2 [WO2022098806, Compound 2-62] | 0.06 nM
Cc1c(-c2cc3nc(Nc4ccc([C@@H](C)S(C)(=O)=O)cc4)ncc3c(N)c2F)cnc2c1NCCO2 [WO2022098806, Compound 2-63] | 0.09 nM
COc1cc2c(cc1Nc1ncc3c(N)c(F)c(-c4ccccc4-c4ccnn4C)cc3n1)CN(C)CC2 [WO2022098806, Compound 2-65] | 17 nM
Cc1c(-c2cc3nc(Nc4ccc(N5CCOC5=O)cc4)ncc3c(N)c2F)cnc2c1NCCO2 [WO2022098806, Compound 2-67] | 0.05 nM
COc1nc(C2(C#N)CC2)ccc1Nc1ncc2c(N)c(F)c(-c3cnc4c(c3C)NCCO4)cc2n1 [WO2022098806, Compound 2-68] | 14 nM
Cc1c(-c2cc3nc(Nc4ccc5c(c4)CN(C)CC5)ncc3c(N)c2F)cnc2c1NCCO2 [WO2022098806, Compound 2-70] | 0.05 nM
COc1ccccc1Nc1ncc2c(N)c(F)c(-c3cnc4c(c3C)NCCO4)cc2n1 [WO2022098806, Compound 2-71] | 0.25 nM
COc1cc2c(cc1Nc1ncc3c(N)c(F)c(-c4cnc5c(c4C)NCCO5)cc3n1)CN(C(C)C)CC2 [WO2022098806, Compound 2-72] | 0.12 nM
CNC(=O)c1ccc(Nc2ncc3c(N)c(F)c(-c4cnc5c(c4C)NCCO5)cc3n2)c(OC)c1 [WO2022098806, Compound 2-74] | 0.27 nM
COc1cc2c(cc1Nc1ncc3c(N)c(F)c(-c4cnc5c(c4C)NCCO5)cc3n1)CN(C)CC2(C)C [WO2022098806, Compound 2-75] | 0.33 nM
Cc1c(-c2cc3nc(Nc4ccc5c(c4)CN(C(C)C)CC5)ncc3c(N)c2F)cnc2c1NCCO2 [WO2022098806, Compound 2-76] | 0.03 nM
Cc1c(-c2cc3nc(Nc4ccc5c(c4)C4CC5CN4C)ncc3c(N)c2F)cnc2c1NCCO2 (configuration not stated) [WO2022098806, Compound 2-79] | 0.03 nM
CNC(=O)C1(c2ccc(Nc3ncc4c(N)c(F)c(-c5cnc6c(c5C)NCCO6)cc4n3)cc2)CCCCC1 [WO2022098806, Compound 2-80] | 0.07 nM
CNC(=O)C1(c2ccc(Nc3ncc4c(N)c(F)c(-c5cnc6c(c5C)NCCO6)cc4n3)cc2)CC1 [WO2022098806, Compound 2-81] | 0.04 nM
CNC(=O)C1(c2ccc(Nc3ncc4c(N)c(F)c(-c5cnc6c(c5C)NCCO6)cc4n3)cc2)CCC1 [WO2022098806, Compound 2-82] | 0.03 nM
CNC(=O)C1(c2ccc(Nc3ncc4c(N)c(F)c(-c5cnc6c(c5C)NCCO6)cc4n3)cc2)CCCC1 [WO2022098806, Compound 2-83] | 0.04 nM
Cc1c(-c2cc3nc(Nc4ccc(CS(C)(=O)=O)nc4)ncc3c(N)c2F)cnc2c1NCCO2 [WO2022098806, Compound 2-84] | 0.02 nM
Cc1c(-c2cc3nc(Nc4ccc5c(c4)CN(C)[C@@H](C)C5)ncc3c(N)c2F)cnc2c1NCCO2 [WO2022098806, Compound 2-85] | 0.03 nM
Cc1c(-c2cc3nc(Nc4ccc5c(c4)CN(C)[C@H](C)C5)ncc3c(N)c2F)cnc2c1NCCO2 [WO2022098806, Compound 2-86] | 0.04 nM
CCS(=O)(=O)Cc1ccc(Nc2ncc3c(N)c(F)c(-c4cnc5c(c4C)NCCO5)cc3n2)c(OC)c1 [WO2022098806, Compound 2-89] | 0.01 nM
CNC(=O)c1ccc(Nc2ncc3c(N)c(F)c(-c4cnc5c(c4C)NCCO5)c(Cl)c3n2)c(OC)c1 [WO2022098806, Compound 2-98] | 6.73 nM

Structure (SMILES) | IC50
Cc1c(-c2c(F)c(N)c3cnc(Nc4ccc5c(c4)CN(C(C)C)CC5)nc3c2Cl)cnc2c1NCCO2 [WO2022098806, Compound 2-102] | 0.08 nM and 0.2 nM and 0.04 nM
Cc1c(-c2c(F)c(N)c3cnc(Nc4ccc(S(C)(=O)=O)cc4)nc3c2Cl)cnc2c1NCCO2 [WO2022098806, Compound 2-103] | 0.09 nM
COc1cc2c(cc1Nc1ncc3c(N)c(F)c(-c4cnc5c(c4C)NCCO5)c(Cl)c3n1)CN(C(C)C)CC2 [WO2022098806, Compound 2-106] | 0.07 nM
Cc1c(-c2c(F)c(N)c3cnc(Nc4ccc5c(c4)CN(C)CC54CC4)nc3c2Cl)cnc2c1NCCO2 [WO2022098806, Compound 2-108] | 0.01 nM
Cc1c(-c2c(F)c(N)c3cnc(Nc4ccc5c(c4)CN(C)CC54CC4)nc3c2C#N)cnc2c1NCCO2 [WO2022098806, Compound 2-109] | 0.05 nM
Cc1c(-c2cc3nc(Nc4ccc(CS(C)(=O)=O)cc4)ncc3c(N)c2F)cnc2c1NCCO2 [WO2022098806, Compound 2-114] | 0.05 nM and 0.07 nM and 0.04 nM
Cc1c(-c2cc3nc(Nc4ccc5c(c4)CN(C)CCC5)ncc3c(N)c2F)cnc2c1NCCO2 [WO2022098806, Compound 2-117] | 0.04 nM
Cc1c(-c2cc3nc(Nc4ccc5c(c4)CCN(C)CC5)ncc3c(N)c2F)cnc2c1NCCO2 [WO2022098806, Compound 2-119] | 0.04 nM
Cc1c(-c2cc3nc(Nc4ccc5c(c4)CNCCC5)ncc3c(N)c2F)cnc2c1NCCO2 [WO2022098806, Compound 2-120] | 0.01 nM
Cc1c(-c2cc3nc(Nc4ccc5c(c4)C4CCC5N4C)ncc3c(N)c2F)cnc2c1NCCO2 (configuration not stated) [WO2022098806, Compound 2-121] | 0.02 nM
CN1CCc2ccc(Nc3ncc4c(N)c(F)c(-c5cnc6c(c5Cl)NCCO6)cc4n3)cc2C1 [WO2022098806, Compound 2-124] | 0.05 nM and 0.03 nM
CCS(=O)(=O)Cc1ccc(Nc2ncc3c(N)c(F)c(-c4cnc5c(c4C)NCCO5)cc3n2)c(F)c1 [WO2022098806, Compound 2-125] | 0.1 nM and 0.45 nM and 0.09 nM
Cc1c(-c2cc3nc(Nc4ccc5c(c4)CC(C)(C)N(C)C5)ncc3c(N)c2F)cnc2c1NCCO2 [WO2022098806, Compound 2-126] | 0.09 nM
Cc1c(-c2cc3nc(Nc4cccc5c4CC(C)(C)N(C)C5)ncc3c(N)c2F)cnc2c1NCCO2 [WO2022098806, Compound 2-127] | 100 nM
Cc1c(-c2cc3nc(Nc4ccc5c(c4)CN(C)C(C)(C)C5)ncc3c(N)c2F)cnc2c1NCCO2 [WO2022098806, Compound 2-128] | 0.03 nM
Cc1c(-c2cc3nc(Nc4ccc5c(c4)CN(C)CC5)ncc3c(N)c2F)cnc2cc[nH]c12 [WO2022098806, Compound 2-130] | 0.1 nM
Cc1c(-c2c(F)c(N)c3cnc(Nc4ccc(CS(=O)(=O)C(C)C)cc4)nc3c2Cl)cnc2c1NCCO2 [WO2022098806, Compound 2-133] | 0.4 nM
Cc1c(-c2c(F)c(N)c3cnc(Nc4ccc(CS(C)(=O)=O)cc4F)nc3c2Cl)cnc2c1NCCO2 [WO2022098806, Compound 2-135] | 0.13 nM
Cc1c(-c2cc3nc(Nc4ccc(CS(=O)(=O)C5CC5)cc4)ncc3c(N)c2F)cnc2c1NCCO2 [WO2022098806, Compound 2-136] | 0.1 nM
Cc1c(-c2cc3nc(Nc4ccc5c(c4)CCS(=O)(=O)C5)ncc3c(N)c2F)cnc2c1NCCO2 [WO2022098806, Compound 2-138] | 0.07 nM
CN1CCc2ccc(Nc3ncc4c(N)c(F)c(-c5cncc6[nH]ccc56)cc4n3)cc2C1 [WO2022098806, Compound 2-139] | 0.04 nM

Structure (SMILES) | IC50
Cc1c(-c2cc3nc(Nc4ccc5c(c4)CN(C)CC5)ncc3c(N)c2F)cnc2c1NCC(C)O2 (configuration not stated) [WO2022098806, Compound 2-141] | 0.05 nM
Cc1c(-c2cc3nc(Nc4ccc5c(c4)CN(C(C)C)CC5)ncc3c(N)c2F)cnc2c1NCC(C)O2 (configuration not stated) [WO2022098806, Compound 2-145] | 0.05 nM
Cc1c(-c2cc3nc(Nc4ccc([C@@H]5CCN(C)C5=O)cc4)ncc3c(N)c2F)cnc2c1NCCO2 [WO2022098806, Compound 2-146] | 0.05 nM
Cc1c(-c2cc3nc(Nc4ccc([C@H]5CCN(C)C5=O)cc4)ncc3c(N)c2F)cnc2c1NCCO2 [WO2022098806, Compound 2-147] | 0.08 nM
Cc1c(-c2cc3nc(Nc4ccc(C5(S(C)(=O)=O)CC5)cc4)ncc3c(N)c2F)cnc2c1NCCO2 [WO2022098806, Compound 2-148] | 0.08 nM
Cc1c(-c2cc3nc(Nc4ccc(CS(=O)(=O)CC(F)(F)F)cc4)ncc3c(N)c2F)cnc2c1NCCO2 [WO2022098806, Compound 2-149] | 0.19 nM
Cc1c(-c2cc3nc(Nc4ccc5c(c4)CN(C)CC5(C)C)ncc3c(N)c2F)cnc2c1NCCO2 [WO2022098806, Compound 2-150] | 0.06 nM
Cc1c(-c2cc3nc(Nc4ccc5c(c4)CN(C)CC54CC4)ncc3c(N)c2F)cnc2c1NCCO2 [WO2022098806, Compound 2-151] | 0.05 nM and 0.27 nM
CN1Cc2cc(Nc3ncc4c(N)c(F)c(-c5cnc6c(c5Cl)NCCO6)cc4n3)ccc2C2(CC2)C1 [WO2022098806, Compound 2-152] | 0.07 nM
Cc1c(N)cncc1-c1cc2nc(Nc3ccc4c(c3)CN(C)CC43CC3)ncc2c(N)c1F [WO2022098806, Compound 2-153] | 0.05 nM
Cc1c(-c2cc3nc(Nc4ccc(CS(C)(=O)=O)cc4F)ncc3c(N)c2F)cnc2c1NCCO2 [WO2022098806, Compound 2-155] | 0.06 nM
Cc1c(-c2cc3nc(Nc4ccc(CS(=O)(=O)C(C)C)cc4)ncc3c(N)c2F)cnc2c1NCCO2 [WO2022098806, Compound 2-157] | 0.07 nM
Cc1c(-c2cc3nc(Nc4ccc5c(c4)CCN(C)C5)ncc3c(N)c2F)cnc2c1NCCO2 [WO2022098806, Compound 2-158] | 0.03 nM
Cc1c(-c2c(F)c(N)c3cnc(Nc4ccc(N5CCOC5=O)cc4)nc3c2Cl)cnc2c1NCCO2 [WO2022098806, Compound 2-159] | 0.24 nM
Cc1c(-c2cc3nc(Nc4ccc5c(c4)CN(C)CC5)ncc3c(N)c2F)cnc2nc[nH]c12 [WO2022098806, Compound 2-162] | 0.13 nM
Cc1c(-c2cc3nc(Nc4ccc(CS(C)(=O)=O)cc4)ncc3c(N)c2F)cnc2c1NCC(C)(C)O2 [WO2022098806, Compound 2-165] | 0.1 nM
Cc1c(-c2cc3nc(Nc4ccc5c(c4)CN(C)CC5)ncc3c(N)c2F)cnc2c1NCC(C)(C)O2 [WO2022098806, Compound 2-166] | 0.06 nM
COc1cc(CS(=O)(=O)C(C)C)ccc1Nc1ncc2c(N)c(F)c(-c3cnc4c(c3C)NCC(C)(C)O4)cc2n1 [WO2022098806, Compound 2-168] | 0.1 nM
COc1cc2c(cc1Nc1ncc3c(N)c(F)c(-c4cnc5c(c4C)NCCO5)c(Cl)c3n1)CN(C)CC21CC1 [WO2022098806, Compound 2-169] | 0.06 nM
Cc1c(-c2cc3nc(Nc4ccc([S+](C)[O-])cc4)ncc3c(N)c2F)cnc2c1NCCO2 (configuration not stated) [WO2022098806, Compound 2-170] | 0.04 nM
